Assay results: US10421778B2, “Isoform-selective lysine deacetylase inhibitors” (WASHINGTON UNIVERSITY, priority 2015, dated 2019)
pIC50: −log10 of the molar value. Marks after values point to notes of the source that are not given here. Positions of bridges follow the written chain, without caps; N, C: chain ends. Non-standard residues stand in square brackets, D forms with d. Residues, ends and D or L forms follow the SMILES beside them. *: point of attachment. GABA = NCCCC(=O)O; NHOH = ON*

Columns and labels:
Experiment in all cases: KDAC inhibition assay, Caliper EZ Reader II
Format in all cases: biochemical
recombinant human KDAC1 = biological target: T1, recombinant human KDAC1 (Homo sapiens, UniProt Q13547); details: for KDAC Inhibition Activity KDAC1 (% inhibition): % inhibition at 30 μM
T1 construct: purchased BPS Bioscience

recombinant human KDAC3 = biological target: T2, recombinant human KDAC3 (Homo sapiens, UniProt O15379); details: for KDAC Inhibition Activity KDAC3 (% inhibition): % inhibition at 30 μM
T2 construct: purchased BPS Bioscience

recombinant human KDAC6 = biological target: T3, recombinant human KDAC6 (Homo sapiens, UniProt Q9UBN7); details: for KDAC Inhibition Activity KDAC6 (% inhibition): % inhibition at 30 μM
T3 construct: purchased BPS Bioscience
T3 sequence (Q9UBN7 1-1215): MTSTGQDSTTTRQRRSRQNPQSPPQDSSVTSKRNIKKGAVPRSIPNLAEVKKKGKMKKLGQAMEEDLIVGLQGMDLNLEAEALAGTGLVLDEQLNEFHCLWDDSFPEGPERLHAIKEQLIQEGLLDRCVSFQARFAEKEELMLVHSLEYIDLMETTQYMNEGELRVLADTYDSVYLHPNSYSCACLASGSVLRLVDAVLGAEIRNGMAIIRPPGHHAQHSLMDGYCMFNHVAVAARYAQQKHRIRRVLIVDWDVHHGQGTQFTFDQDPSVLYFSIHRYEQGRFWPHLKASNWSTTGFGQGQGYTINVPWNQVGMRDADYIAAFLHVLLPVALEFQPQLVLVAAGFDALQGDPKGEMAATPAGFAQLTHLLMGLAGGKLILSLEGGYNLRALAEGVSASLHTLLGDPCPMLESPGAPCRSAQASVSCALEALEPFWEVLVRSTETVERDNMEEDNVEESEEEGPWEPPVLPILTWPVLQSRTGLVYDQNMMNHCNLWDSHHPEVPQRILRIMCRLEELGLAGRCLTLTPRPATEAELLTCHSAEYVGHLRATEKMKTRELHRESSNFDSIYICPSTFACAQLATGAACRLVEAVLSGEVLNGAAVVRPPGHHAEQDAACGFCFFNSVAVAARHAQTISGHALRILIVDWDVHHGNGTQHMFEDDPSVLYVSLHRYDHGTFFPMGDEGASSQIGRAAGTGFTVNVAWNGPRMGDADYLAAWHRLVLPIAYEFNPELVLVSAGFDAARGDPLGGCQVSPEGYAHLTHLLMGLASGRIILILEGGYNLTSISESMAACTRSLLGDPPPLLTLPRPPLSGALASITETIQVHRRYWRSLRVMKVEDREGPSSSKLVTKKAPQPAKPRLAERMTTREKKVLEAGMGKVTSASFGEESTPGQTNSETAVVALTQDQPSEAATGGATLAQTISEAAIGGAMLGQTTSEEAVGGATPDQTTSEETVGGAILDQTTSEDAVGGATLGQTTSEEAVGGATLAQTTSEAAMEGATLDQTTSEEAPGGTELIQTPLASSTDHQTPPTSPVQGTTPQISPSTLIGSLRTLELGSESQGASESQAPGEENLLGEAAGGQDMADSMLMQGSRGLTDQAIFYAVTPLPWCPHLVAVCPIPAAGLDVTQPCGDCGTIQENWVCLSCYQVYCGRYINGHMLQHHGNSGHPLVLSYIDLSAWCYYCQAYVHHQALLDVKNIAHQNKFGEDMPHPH

recombinant human KDAC8 = biological target: T4, recombinant human KDAC8 (Homo sapiens, UniProt Q9BY41); details: for KDAC Inhibition Activity KDAC8 (% inhibition): % inhibition at 30 μM
T4 construct: purchased BPS Bioscience
T4 sequence (Q9BY41 1-377): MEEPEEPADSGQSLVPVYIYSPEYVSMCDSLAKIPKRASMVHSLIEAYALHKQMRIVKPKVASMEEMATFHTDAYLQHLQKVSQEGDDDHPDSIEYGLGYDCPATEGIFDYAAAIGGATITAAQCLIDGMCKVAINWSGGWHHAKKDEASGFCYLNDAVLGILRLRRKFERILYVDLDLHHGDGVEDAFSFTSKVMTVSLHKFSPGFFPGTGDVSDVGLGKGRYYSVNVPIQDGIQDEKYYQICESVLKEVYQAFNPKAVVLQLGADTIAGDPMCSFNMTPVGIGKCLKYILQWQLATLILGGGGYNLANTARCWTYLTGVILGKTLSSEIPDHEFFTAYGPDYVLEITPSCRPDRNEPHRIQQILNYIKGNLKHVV

T1 sequence (Q13547 whole entry): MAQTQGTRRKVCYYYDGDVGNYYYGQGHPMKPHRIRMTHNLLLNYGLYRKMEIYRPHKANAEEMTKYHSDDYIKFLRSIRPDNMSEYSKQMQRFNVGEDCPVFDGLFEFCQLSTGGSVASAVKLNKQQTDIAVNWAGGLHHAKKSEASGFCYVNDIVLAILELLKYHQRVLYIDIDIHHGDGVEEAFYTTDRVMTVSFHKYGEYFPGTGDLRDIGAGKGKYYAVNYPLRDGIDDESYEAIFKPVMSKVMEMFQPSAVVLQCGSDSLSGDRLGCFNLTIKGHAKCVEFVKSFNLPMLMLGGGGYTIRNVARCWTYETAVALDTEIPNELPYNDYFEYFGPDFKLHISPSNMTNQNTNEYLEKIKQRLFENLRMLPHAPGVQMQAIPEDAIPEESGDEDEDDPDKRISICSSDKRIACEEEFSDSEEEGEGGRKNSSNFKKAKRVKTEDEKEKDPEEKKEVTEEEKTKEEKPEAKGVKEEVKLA
T2 sequence (O15379 whole entry): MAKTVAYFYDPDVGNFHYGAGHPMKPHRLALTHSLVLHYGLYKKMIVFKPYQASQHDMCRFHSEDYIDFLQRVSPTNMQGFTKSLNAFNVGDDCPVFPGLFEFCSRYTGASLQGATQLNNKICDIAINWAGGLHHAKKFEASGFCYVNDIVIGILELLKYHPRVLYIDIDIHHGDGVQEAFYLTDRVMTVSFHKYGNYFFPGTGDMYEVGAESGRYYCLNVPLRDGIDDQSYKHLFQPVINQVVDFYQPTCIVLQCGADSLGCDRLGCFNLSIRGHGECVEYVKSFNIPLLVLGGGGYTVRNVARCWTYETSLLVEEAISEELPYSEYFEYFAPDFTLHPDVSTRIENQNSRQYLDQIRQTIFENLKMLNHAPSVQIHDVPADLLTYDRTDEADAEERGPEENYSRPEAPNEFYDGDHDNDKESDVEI
T2 sequence (Q9Y618 395-489 partner limits assumed): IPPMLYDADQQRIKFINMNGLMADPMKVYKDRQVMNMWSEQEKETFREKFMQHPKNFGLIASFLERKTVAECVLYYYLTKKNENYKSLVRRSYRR

| Molecule | KDAC Inhibition Activity KDAC1 (% inhibition) (recombinant human KDAC1) | KDAC Inhibition Activity KDAC3 (% inhibition) (recombinant human KDAC3) | KDAC Inhibition Activity KDAC6 (% inhibition) (recombinant human KDAC6) | KDAC Inhibition Activity KDAC8 (% inhibition) (recombinant human KDAC8) | also measured |
| --- | --- | --- | --- | --- | --- |
| CC(C)[C@@H]1NC(=O)[C@@H]2CCCN2C(=O)[C@H]2CCCN2C(=O)C[C@@H](C(=O)NCCCC(=O)NO)NC1=O [Compound 14a, Cyclo-Asp(^DPro-Pro-Val)-NHCH2CH2CH2CONHOH] ([dP]PVD[GABA]-{NHOH}; lactam N-4) | – | – | – | – | inhibition at 30 µM (recombinant human KDAC1): 4.5%; inhibition at 30 µM (recombinant human KDAC3): 67%; inhibition at 30 µM (recombinant human KDAC6): 82%; inhibition at 30 µM (recombinant human KDAC8): 31% |
| Cyclo-^DAsp(Pro-^DPro-Val)-NHCH2CH2CH2SCH3 [Compound 19b] | 1% | Not active | Not active | 27% | – |
| Cyclo-Asp(^DPro-Pro-Val)-NHCH2CH2CH2S(═O)CH3 [Compound 8a] | Not active | Not active | Not active | 30% | – |
| CC(C)[C@@H]1NC(=O)[C@@H]2CCCN2C(=O)[C@H]2CCCN2C(=O)C[C@H](C(=O)O)NC1=O [Compound 3b, Cyclo-^DAsp(^DPro-Pro-Val)-OH] ([dP]PV[dD]-OH; lactam N-4) | – | – | – | – | inhibition at 30 µM (recombinant human KDAC1): 2.5%; inhibition at 30 µM (recombinant human KDAC3): 3% |
| Cyclo-Asp(^DPro-Pro-Val)-NHCH2CH2CH2SCH3 [Compound 7a] | Not active | Not active | 6% | 5% | – |
| Cyclo-^DAsp(^DPro-Pro-Val)-NHCH2CH2CH2NH2 [Compound 16b] | 4.5% | 14%^a | 2%^a | 22%^a | – |
| Cyclo-Asp(Pro-^DPro-Val)-NHCH2CH2CH2COOMe [Compound 23a] | Not active | 7% | Not active | Not active | – |
| Cyclo-^DAsp(^DPro-Pro-Val)-NHCH2CH2CH2S(═O)2CH3 [Compound 9b] | 4% | 3% | 1% | 22% | – |
| Cyclo-Asp(^DPro-Pro-Val)-NHCH2CH2SH [Compound 5a] | Not active | Not active | 14% | 12% | – |
| Cyclo-^DAsp(^DPro-Pro-Val)-NHCH2CH2CH2SCH3 [Compound 7b] | 1.5% | Not active | Not active | 28% | – |
| Cyclo-Asp(Pro-^DPro-Val)-OBn [Compound 2a] | – | – | – | 14% | – |
| Cyclo-^DAsp(Pro-^DPro-Val)-OBn [Compound 2b] | 1.5% | 1% | 10% | – | – |
| Cyclo-DAsp(Pro-DPro-Val)-OH [Compound 4b] | – | 5% | 10% | 4% | – |
| CC(C)[C@@H]1NC(=O)[C@@H]2CCCN2C(=O)[C@H]2CCCN2C(=O)C[C@@H](C(=O)O)NC1=O [Compound 3a, Cyclo-Asp(^DPro-Pro-Val)-OH] ([dP]PVD-OH; lactam N-4) | – | – | – | – | inhibition at 30 µM (recombinant human KDAC3): 1% |
| Cyclo-Asp(Pro-^DPro-Val)-OH [Compound 4a] | – | 24% | – | – | – |
| Cyclo-Asp(^DPro-Pro-Val)-OBn [Compound 1a] | – | – | 6% | 9% | – |
| Nc1ccccc1NC(=O)c1ccc(-c2cn(CCc3ccsc3)nn2)cc1 [Compound T247, N-(2-Aminophenyl)-4-[1-(2-thiophen-3-ylethyl)-1H-[1,2,3]triazol-4-yl]benzamide, reference compound] | – | – | – | – | pIC50 (recombinant human KDAC1; 10-point dose curve from 30 μM): 5.95; pIC50 (recombinant human KDAC3; 10-point dose curve from 30 μM, read-out: KDAC Inhibition Activity (IC50) KDAC3): 5.40 |

Continued, in another order:

| KDAC Inhibition Activity KDAC1 (% inhibition) (recombinant human KDAC1) | KDAC Inhibition Activity KDAC3 (% inhibition) (recombinant human KDAC3) | KDAC Inhibition Activity KDAC6 (% inhibition) (recombinant human KDAC6) | KDAC Inhibition Activity KDAC8 (% inhibition) (recombinant human KDAC8) | Molecule | also measured |
| --- | --- | --- | --- | --- | --- |
| – | 19% | 40% | 3% | [Cyclo-^DAsp(Pro-^DPro-Val)-NHCH2CH2CH2S]2 [Compound 38b] | – |
| Not active | 13% | 6% | 31% | Cyclo-^DAsp(Pro-^DPro-Val)-NHCH2CH2CH2CONHOH [Compound 25b] | – |
| – | – | 4% | 2% | [Cyclo-DAsp(Pro-DPro-Val)-NHCH2CH2S]2 [Compound 36b] | – |
| Not active | Not active | Not active | 3% | Cyclo-Asp(^DPro-Pro-Val)-NHCH2CH2CH2COOH [Compound 13a] | – |
| Not active | 2% | 15% | 5% | Cyclo-Asp(Pro-^DPro-Val)-NHCH2CH2SH [Compound 17a] | – |
| Not active | 5% | Not active | 12% | Cyclo-^DAsp(Pro-^DPro-Val)-NHCH2CH2CH2OH [Compound 22b] | – |
| 2.5% | Not active | Not active | Not active | Cyclo-^DAsp(^DPro-Pro-Val)-NHCH2CH2CH2COOH [Compound 13b] | – |
| Not active | 9% | Not active | 38% | Cyclo-^DAsp(Pro-^DPro-Val)-NHCH2CH2CH2COOH [Compound 24b] | – |
| – | 2% | – | – | [Cyclo-Asp(^DPro-Pro-Val)-NHCH2CH2S]2 [Compound 35a] | – |
| 1% | 9% | 1% | 25% | Cyclo-^DAsp(^DPro-Pro-Val)-NHCH2CH2CH2OH [Compound 10b] | – |
| – | 10% | 21% | – | [Cyclo-Asp(Pro-^DPro-Val)-NHCH2CH2CH2S]2 [Compound 38a] | – |
| – | – | 9% | 6% | [Cyclo-Asp(^DPro-Pro-Val)-NHCH2CH2CH2S]2 [Compound 37a] | – |
| – | – | – | 2% | [Cyclo-Asp(Pro-^DPro-Val)-NHCH2CH2S]2 [Compound 36a] | – |
| – | – | 6% | 9% | [Cyclo-^DAsp(^DPro-Pro-Val)-NHCH2CH2S]2 [Compound 35b] | – |
| 1% | 53% | 8% | – | [Cyclo-^DAsp(^DPro-Pro-Val)-NHCH2CH2CH2S]2 [Compound 37b] | – |
